PubChem BioAssay AID292 (DTP/NCI, 2004)
Values joined by “and” are separate entries in the source; they are usually repeats but may differ in a detail not shown here. Equal values may be shown once. Toxic doses and inconclusive results are not listed.

Tested on: B6C3F1 mice, ip Sarcoma M5076, median survival T/C
Assay: NCI In Vivo Anticancer Drug Screen. Data for tumor model Sarcoma M5076 (intraperitoneal) in B6C3F1 mice
Details: endpoint: median survival time, higher = longer survival
Method in brief: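 Survival measured in treated (T) and vehicle control (C) mice with transplantable tumour; result given as T divided by C.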

[1] = dose: 25.0 mg/kg/injection, schedule: Q04DX004 (ip), vehicle: saline with Tween-80
[2] = dose: 50.0 mg/kg/injection, schedule: Q04DX004 (ip), vehicle: saline with Tween-80
[3] = dose: 100.0 mg/kg/injection, schedule: Q04DX004 (ip), vehicle: saline with Tween-80
[4] = dose: 200.0 mg/kg/injection, schedule: Q04DX004 (ip), vehicle: saline with Tween-80
[5] = dose: 400.0 mg/kg/injection, schedule: Q04DX004 (ip), vehicle: saline with Tween-80
[6] = dose: 37.5 mg/kg/injection, schedule: Q04DX004 (ip), vehicle: saline with Tween-80
[7] = dose: 75.0 mg/kg/injection, schedule: Q04DX004 (ip), vehicle: saline with Tween-80
[8] = dose: 600.0 mg/kg/injection, schedule: Q04DX004 (ip), vehicle: saline with Tween-80
[9] = dose: 50.0 mg/kg/injection, schedule: Q04DX004 (ip), vehicle: saline
[10] = dose: 100.0 mg/kg/injection, schedule: Q04DX004 (ip), vehicle: saline
[11] = dose: 200.0 mg/kg/injection, schedule: Q04DX004 (ip), vehicle: saline
[12] = dose: 12.5 mg/kg/injection, schedule: Q04DX004 (ip), vehicle: Klucel (hydroxypropylcellulose) (HPC)
[13] = dose: 25.0 mg/kg/injection, schedule: Q04DX004 (ip), vehicle: Klucel (hydroxypropylcellulose) (HPC)
[14] = dose: 50.0 mg/kg/injection, schedule: Q04DX004 (ip), vehicle: Klucel (hydroxypropylcellulose) (HPC)

## N#Cc1c(-c2ccc(F)cc2)c(-c2ccc(F)cc2)nn(CCO)c1=O
dose: 12.5 mg/kg/injection, schedule: Q04DX004 (ip), vehicle: distilled water + Tween-80
  T/C: 96 % of control and 106 % of control
dose: 25.0 mg/kg/injection, schedule: Q04DX004 (ip), vehicle: distilled water + Tween-80
  T/C: 101 % of control and 102 % of control
dose: 50.0 mg/kg/injection, schedule: Q04DX004 (ip), vehicle: distilled water + Tween-80
  T/C: 106 % of control and 111 % of control
dose: 72.0 mg/kg/injection, schedule: Q04DX004 (ip), vehicle: distilled water + Tween-80
  T/C: 103 % of control
dose: 100.0 mg/kg/injection, schedule: Q04DX004 (ip), vehicle: distilled water + Tween-80
  T/C: 120 % of control and 124 % of control
dose: 120.0 mg/kg/injection, schedule: Q04DX004 (ip), vehicle: distilled water + Tween-80
  T/C: 115 % of control
dose: 200.0 mg/kg/injection, schedule: Q04DX004 (ip), vehicle: distilled water + Tween-80
  T/C: 123 % of control
dose: 333.0 mg/kg/injection, schedule: Q04DX004 (ip), vehicle: distilled water + Tween-80
  T/C: 150 % of control
dose: 555.0 mg/kg/injection, schedule: Q04DX004 (ip), vehicle: distilled water + Tween-80
  T/C: 153 % of control

## N=C(N)c1ccc(N=NNc2ccc(C(=N)N)cc2)cc1
[1]
  T/C: 96 % of control
[2]
  T/C: 97 % of control

## CCOC(=O)CNCc1cc(=O)[nH]c2cc(Cl)ccc12
[1]
  T/C: 99 % of control
[2]
  T/C: 99 % of control
[3]
  T/C: 101 % of control
[4]
  T/C: 99 % of control
[5]
  T/C: 94 % of control

## c1ccc(-c2nc3cc4c(cc3n3cccc23)oc2ccccc24)cc1
[1]
  T/C: 90 % of control
[2]
  T/C: 101 % of control
[5]
  T/C: 91 % of control

## CNC(=O)Oc1ccc(S(=O)(=O)c2ccc(OC(=O)NC)cc2)cc1
[1]
  T/C: 100 % of control
[2]
  T/C: 96 % of control and 104 % of control
[3]
  T/C: 96 % of control and 97 % of control
[4]
  T/C: 100 % of control and 101 % of control

## C=C1C(O)C2(O)OCC34C(CC5C(C)=CC(=O)C(O)C5(C)C23)OC(=O)C(OC(=O)C/C=C/CCCCCCCC)C14 (stereo not given)
dose: 2.0 mg/kg/injection, schedule: Q04DX004 (ip), vehicle: saline + alcohol
  T/C: 96 % of control
dose: 2.88 mg/kg/injection, schedule: Q04DX004 (ip), vehicle: saline + alcohol
  T/C: 116 % of control
dose: 2.89 mg/kg/injection, schedule: Q04DX004 (ip), vehicle: saline + alcohol
  T/C: 112 % of control
dose: 4.0 mg/kg/injection, schedule: Q04DX004 (ip), vehicle: saline + alcohol
  T/C: 107 % of control
dose: 4.8 mg/kg/injection, schedule: Q04DX004 (ip), vehicle: saline + alcohol
  T/C: 110 % of control
dose: 13.33 mg/kg/injection, schedule: Q04DX004 (ip), vehicle: saline + alcohol
  T/C: 124 % of control
dose: 16.0 mg/kg/injection, schedule: Q04DX004 (ip), vehicle: saline + alcohol
  T/C: 114 % of control

## CCOC(=O)/C=C1\CCC(C)n2c1nccc2=O (stereo not given)
[6]
  T/C: 102 % of control
[7]
  T/C: 86 % of control
dose: 150.0 mg/kg/injection, schedule: Q04DX004 (ip), vehicle: saline with Tween-80
  T/C: 96 % of control
dose: 300.0 mg/kg/injection, schedule: Q04DX004 (ip), vehicle: saline with Tween-80
  T/C: 101 % of control
[8]
  T/C: 106 % of control

## COC(=O)Nc1ccc(Cc2ccc(NC(=O)OC)cc2)cc1
[2]
  T/C: 95 % of control
[3]
  T/C: 93 % of control and 94 % of control
[4]
  T/C: 103 % of control and 119 % of control
[5]
  T/C: 153 % of control
[8]
  T/C: 160 % of control

## CC1(CO)C(O)CCC2(C)C1CCC1CC3CC12CCC3(O)CO (stereo not given)
dose: 51.8 mg/kg/injection, schedule: Q04DX005 (ip), vehicle: Klucel (hydroxypropylcellulose) (HPC)
  T/C: 120 % of control
dose: 86.4 mg/kg/injection, schedule: Q04DX004 (ip), vehicle: Klucel (hydroxypropylcellulose) (HPC)
  T/C: 120 % of control
dose: 86.4 mg/kg/injection, schedule: Q04DX005 (ip), vehicle: Klucel (hydroxypropylcellulose) (HPC)
  T/C: 124 % of control
dose: 144.0 mg/kg/injection, schedule: Q04DX004 (ip), vehicle: Klucel (hydroxypropylcellulose) (HPC)
  T/C: 116 % of control
dose: 144.0 mg/kg/injection, schedule: Q04DX005 (ip), vehicle: Klucel (hydroxypropylcellulose) (HPC)
  T/C: 123 % of control
dose: 240.0 mg/kg/injection, schedule: Q04DX005 (ip), vehicle: Klucel (hydroxypropylcellulose) (HPC)
  T/C: 122 % of control
dose: 400.0 mg/kg/injection, schedule: Q04DX004 (ip), vehicle: Klucel (hydroxypropylcellulose) (HPC)
  T/C: 151 % of control and 164 % of control

## NNC(=O)c1ccncc1
dose: 25.0 mg/kg/injection, schedule: Q04DX004 (ip), vehicle: saline
  T/C: 102 % of control
[9]
  T/C: 102 % of control
[10]
  T/C: 95 % of control
[11]
  T/C: 106 % of control

## N#CC1C(=O)NC(=S)NC1c1ccc2c(c1)CCC2 (stereo not given)
[9]
  T/C: 103 % of control
[10]
  T/C: 97 % of control
[11]
  T/C: 102 % of control

## COc1ccc(C[C@H](N)C(=O)NC2C(CO)OC(n3cnc4c(N(C)C)ncnc43)C2O)cc1 (stereo not given in full)
[9]
  T/C: 89 % of control
[10]
  T/C: 117 % of control
[11]
  T/C: 102 % of control
dose: 400.0 mg/kg/injection, schedule: Q04DX004 (ip), vehicle: saline
  T/C: 108 % of control

## C/C(=N\NC(=S)N1CCN(c2ccccn2)CC1)c1ccccn1
[12]
  T/C: 98 % of control
[13]
  T/C: 103 % of control
[14]
  T/C: 93 % of control

## Cc1cc(=O)n(Cc2ccco2)c(=S)[nH]1
[2]
  T/C: 105 % of control
[3]
  T/C: 105 % of control
[4]
  T/C: 100 % of control
[5]
  T/C: 89 % of control
dose: 800.0 mg/kg/injection, schedule: Q04DX004 (ip), vehicle: saline with Tween-80
  T/C: 106 % of control

## NC(C(=O)O)C1=CCCCCC1 (stereo not given)
dose: 16.25 mg/kg/injection, schedule: Q04DX004 (ip), vehicle: Klucel (hydroxypropylcellulose) (HPC)
  T/C: 100 % of control
dose: 32.5 mg/kg/injection, schedule: Q04DX004 (ip), vehicle: Klucel (hydroxypropylcellulose) (HPC)
  T/C: 111 % of control
dose: 65.0 mg/kg/injection, schedule: Q04DX004 (ip), vehicle: Klucel (hydroxypropylcellulose) (HPC)
  T/C: 104 % of control
dose: 130.0 mg/kg/injection, schedule: Q04DX004 (ip), vehicle: Klucel (hydroxypropylcellulose) (HPC)
  T/C: 95 % of control
dose: 260.0 mg/kg/injection, schedule: Q04DX004 (ip), vehicle: Klucel (hydroxypropylcellulose) (HPC)
  T/C: 100 % of control

## Cc1ccc(NN=O)nc1
dose: 3.13 mg/kg/injection, schedule: Q04DX004 (ip), vehicle: water
  T/C: 113 % of control
dose: 6.25 mg/kg/injection, schedule: Q04DX004 (ip), vehicle: water
  T/C: 113 % of control
dose: 25.0 mg/kg/injection, schedule: Q04DX004 (ip), vehicle: water
  T/C: 160 % of control
dose: 50.0 mg/kg/injection, schedule: Q04DX004 (ip), vehicle: water
  T/C: 160 % of control

## CCN(CC)Cc1cc2[nH]c3c4ccc(Cl)cc4ncc3c2cc1OC (tested in a mixture with another compound)
dose: 18.75 mg/kg/injection, schedule: Q04DX004 (ip), vehicle: saline with Tween-80
  T/C: 104 % of control
[1]
  T/C: 117 % of control
[6]
  T/C: 112 % of control
[2]
  T/C: 110 % of control
[7]
  T/C: 99 % of control
[3]
  T/C: 105 % of control

## O=[N+]([O-])c1ccc([I+]c2ccccc2)cc1
dose: 6.25 mg/kg/injection, schedule: Q04DX004 (ip), vehicle: Klucel (hydroxypropylcellulose) (HPC)
  T/C: 95 % of control
[12]
  T/C: 109 % of control
[13]
  T/C: 99 % of control
[14]
  T/C: 106 % of control
